Earlier results, collected in patent US20130048853A1, “Adsorbent and Method for Producing Same” (HITACHI HIGH-TECHNOLOGIES CORPORATION, priority 2010, published 2013).
Where “and” joins values, the source holds several entries; their conditions need not be identical. Identical values can stand only once. Like-named read-outs stand apart in the source and are kept apart here.

[1] = source not stated, calculated or actual values may be applied

For `CO[C@H]1C[C@@H]2CC[C@@H](C)[C@@](O)(O2)C(=O)C(=O)N2CCCC[C@H]2C(=O)O[C@H]([C@H](C)C[C@@H]2CC[C@@H](O)[C@H](OC)C2)CC(=O)[C@H](C)/C=C(\C)[C@@H](O)[C@@H](OC)C(=O)[C@H](C)C[C@H](C)/C=C/C=C/C=C/1C` [rapamycin], the “logP (octanol-water distribution coefficient)” value (“logP” below) [1] is listed as 3.5.
In the case of `O=C1NC(=O)C(c2ccccc2)(c2ccccc2)N1` [phenyloin], the “logP” value is given as 2.5.
For `CO[C@H]1C[C@@H]2CC[C@@H](C)[C@@](O)(O2)C(=O)C(=O)N2CCCC[C@H]2C(=O)O[C@H]([C@H](C)C[C@@H]2CC[C@@H](OCCO)[C@H](OC)C2)CC(=O)[C@H](C)/C=C(\C)[C@@H](O)[C@@H](OC)C(=O)[C@H](C)C[C@H](C)/C=C/C=C/C=C/1C` [everolimus], the “logP” value [1] is given as 3.4 and 3.35.
